Laboratory results: patent US20230338391A1, “TREATMENT FOR DEPRESSION” (TAKEDA PHARMACEUTICAL COMPANY LIMITED, priority 2020, published 2023)
“And” between values parts separate entries of the source, which are not always exact repeats. Equal entries are not always repeated. Where two headings read alike, the source gives them in different places.

Tests used:
[1] = 14-day rat neurotoxicology study: toxicokinetics; format: in vivo, Sprague-Dawley rats; details: for AUC / concentration at 15 day / Cmax: Sprague-Dawley, rat, plasma; for concentration at 15 day: read-out: plasma level at the time of sacrifice
Experimental: An appropriate amount of methylcellulose (MC) was weighed and mixed with a small amount of warm water for injection. The mixture was then diluted with water for injection to make a 0.5% (w/v) MC solution. The vehicle was used for dosing in the control group. To make a 40 mg/mL suspension of COMPOUND A, an appropriate amount of the test article was weighed and mixed with the vehicle using a planetary centrifugal mixer and the mixture was then diluted with additional vehicle. The 40 mg/mL suspension was used to make 20 and 10 mg/mL suspensions by stepwise dilutions with the vehicle. The dosing suspensions were stored in a refrigerator (actual values: 3.7° C. to 6.1° C., acceptable range: 2° C. to 8° C.) under light-resistant conditions (tight container) and used within 8 days after preparation.
Males and females in good condition were selected for this study based on examinations within 4 days before the first dosing. Based on their body weights, animals were stratified and allocated randomly to 3 main study groups, each composed of 18 males and 18 females, and 2 satellite groups each composed of 9 males and 9 females for determination of plasma drug and metabolite concentrations. Surplus animals after animal selection were excluded from the study on the day after the animal selection or the day dosing commenced (Day 1).
Referring to Tables 4A and 4B, the plasma concentrations of COMPOUND A on Days 2, 7, and 14 were determined in each satellite group. Blood samples (approximately 0.25 mL) were drawn without anesthesia from the subclavian vein of 3 animals of each sex in the satellite groups at each sampling point using sodium-heparinized syringes. Sampling points were as follows: pre-dose and at 1, 2, 4, 8, and 24 hours post-dose. In addition, the plasma concentrations of COMPOUND A before scheduled necropsy were determined in each main study group. The plasma samples (≥0.08 mL) in polypropylene tubes were frozen and stored in a freezer (actual values: −87.0° C. to −83.5° C.) until shipment with parallel quality control (QC) samples prepared by test site 2 and stored under the same conditions as study plasma samples in the test facility. The samples, including the parallel QC samples, were packed with dry ice and shipped to test site 2. The samples were stored frozen at −85.8° C. to −75.5° C. until assay. The plasma concentrations of COMPOUND A and its metabolites, were determined by liquid chromatography/tandem mass spectrometry (LC/MS/MS) and the TK parameters (tmax, Cmax, and AUC24 value) on Days 2, 7, and 14 were calculated for the satellite groups at test site 2.

[2] = Population PK modeling and simulation; set-up: species or system human
Experimental: Data processing and graphical visualization was performed using Matlab (version R2019a; The MathWorks, Inc., Natick, Massachusetts, United States).
The Stochastic Approximation of Expectation Maximization (SAEM) algorithm, a stochastic algorithm for calculating the maximum likelihood estimator, was selected as model-estimation method for its ability to accurately estimate population parameters.
Model building and selection was based on the following criteria/procedures: • Evaluation of individual and population parameter estimates and their precision (precision was quantified using the percentage of relative standard error (% RSE)); • Graphical examination of diagnostic and goodness-of-fit plots; • Analysis of correlation matrix of the estimates and condition number; • Reduction in both residual variability and inter-individual variability; and • Reduction in log likelihood (−2LL), Akaike Information Criterion (AIC) and Bayesian Information Criterion (BIC) for all nested models.
The base model was built by using these criteria to compare different structural models (e.g., one-compartment, two-compartment, three-compartment) with different absorption (e.g., zero order, first order) and elimination (e.g., linear, nonlinear) processes. Development of the base model was performed by adding inter-individual variability (IIV) on one structural parameter at a time and applying the set criteria to select the best model. IIV was generally modeled as an exponential term as follows:
A covariate model was then built to further reduce the unexplained inter-individual variability. Development of the covariate model was performed using the forward selection and backward elimination method. In the forward selection step, covariates were tested one at the time. […] In the backward elimination step, covariates were eliminated one at the time and changes in −2LL recorded.
The final model was evaluated using a visual predictive check, a simulation-based method to visually assess concordance of the model-based simulations and observed data. Bootstrap analysis was also performed to determine the precision of the parameter estimates, estimate confidence interval of identified parameters and assess the stability of the model. […]

[3] = final POPPK model, inter-individual variability
[4] = final POPPK model, residual error

With `CC1=CN2CCS(=O)(=O)N=C2C(c2ccc(OC3CCCCC3)cc2)=N1` [COMPOUND A, 9-[4-(Cyclohexyloxy)phenyl]-7-methyl-3,4-dihydropyrazino[2,1-c][1,2,4]thiadiazine 2,2-dioxide] the “plasma level at the time of sacrifice” value ([1]; Day 15, females at 200 mg/kg/day not observed to convulse, no brain histopathology, individual animals, 200 mg/kg/day) was 0.192 µg/mL and 0.968 µg/mL and 0.114 µg/mL, the “plasma level at the time of sacrifice” value ([1]; Day 15, females at 200 mg/kg/day with lesions visible with Fluoro-Jade only, individual animals, 200 mg/kg/day) was 0.138 µg/mL and the AUC ([1]; both sexes, oral, 100 mg/kg/day, NOAEL 100 mg/kg/day, read-out: NOAEL exposure cap (AUC) from the 14-day neurotoxicity study in rats) was 17.4 µg·h/mL. The concentration at 15 day ([1]; female, oral, 200 mg/kg/day, Day 15, female at 200 mg/kg/day with lesions visible with both HE and Fluoro-Jade, individual animal) was 0.935 µg/mL, the concentration at 15 day ([1]; female, oral, 200 mg/kg/day, Day 15, females at 200 mg/kg/day with lesions visible with Fluoro-Jade only, individual animals) was 0.182 µg/mL and the Cmax ([1]; female, po, 100 mg/kg/day, 100 mg/kg/day oral, female, Day 2) was 1.64 µg/mL. The AUC ([1]; female, po, 100 mg/kg/day, 100 mg/kg/day oral, female, Day 2, read-out: AUC24) was 20.5 µg·h/mL, the Cmax ([1]; female, po, 100 mg/kg/day, 100 mg/kg/day oral, female, Day 7) was 1.27 µg/mL and the AUC ([1]; female, po, 100 mg/kg/day, 100 mg/kg/day oral, female, Day 7, read-out: AUC24) was 14.9 µg·h/mL. It also gave a Cmax ([1]; female, po, 100 mg/kg/day, 100 mg/kg/day oral, female, Day 14) of 1.67 µg/mL, an AUC ([1]; female, po, 100 mg/kg/day, 100 mg/kg/day oral, female, Day 14, read-out: AUC24) of 17.8 µg·h/mL and a Cmax ([1]; female, po, 200 mg/kg/day, 200 mg/kg/day oral, female, Day 2) of 1.63 µg/mL. For the same compound, the AUC ([1]; female, po, 200 mg/kg/day, 200 mg/kg/day oral, female, Day 2, read-out: AUC24) was 18 µg·h/mL, the Cmax ([1]; female, po, 200 mg/kg/day, 200 mg/kg/day oral, female, Day 7) was 2.34 µg/mL and the AUC ([1]; female, po, 200 mg/kg/day, 200 mg/kg/day oral, female, Day 7, read-out: AUC24) was 31.8 µg·h/mL. The Cmax ([1]; female, po, 200 mg/kg/day, 200 mg/kg/day oral, female, Day 14) was 2.21 µg/mL, the AUC ([1]; female, po, 200 mg/kg/day, 200 mg/kg/day oral, female, Day 14, read-out: AUC24) was 27.6 µg·h/mL and the Cmax ([1]; male, po, 50 mg/kg/day, 50 mg/kg/day oral, male, Day 2) was 0.836 µg/mL. The AUC ([1]; male, po, 50 mg/kg/day, 50 mg/kg/day oral, male, Day 2, read-out: AUC24) was 9.48 µg·h/mL, the Cmax ([1]; male, po, 50 mg/kg/day, 50 mg/kg/day oral, male, Day 7) was 0.841 µg/mL and the AUC ([1]; male, po, 50 mg/kg/day, 50 mg/kg/day oral, male, Day 7, read-out: AUC24) was 10.7 µg·h/mL. It also gave a Cmax ([1]; male, po, 50 mg/kg/day, 50 mg/kg/day oral, male, Day 14) of 0.728 µg/mL, an AUC ([1]; male, po, 50 mg/kg/day, 50 mg/kg/day oral, male, Day 14, read-out: AUC24) of 8.75 µg·h/mL and a Cmax ([1]; male, po, 100 mg/kg/day, 100 mg/kg/day oral, male, Day 2) of 1.2 µg/mL. For the same compound, the AUC ([1]; male, po, 100 mg/kg/day, 100 mg/kg/day oral, male, Day 2, read-out: AUC24) was 15 µg·h/mL, the Cmax ([1]; male, po, 100 mg/kg/day, 100 mg/kg/day oral, male, Day 7) was 0.917 µg/mL and the AUC ([1]; male, po, 100 mg/kg/day, 100 mg/kg/day oral, male, Day 7, read-out: AUC24) was 13 µg·h/mL. The Cmax ([1]; male, po, 100 mg/kg/day, 100 mg/kg/day oral, male, Day 14) was 1.29 µg/mL, the AUC ([1]; male, po, 100 mg/kg/day, 100 mg/kg/day oral, male, Day 14, read-out: AUC24) was 17 µg·h/mL and the “Additive Error, median bootstrap parameter estimate” value ([2]; bootstrap analysis) was 0.34 SD. The “CL/F_IIV, median bootstrap parameter estimate” value ([2]; bootstrap analysis) was 61.97 % CV, the “KA IIV, median bootstrap parameter estimate” value ([2]; bootstrap analysis) was 97.18 % CV and the “Proportional Error, median bootstrap parameter estimate” value ([2]; bootstrap analysis) was 37.72 % CV. The “TLag IIV, median bootstrap parameter estimate” value ([2]; bootstrap analysis) was 67.78 % CV, the “V/F_IIV, median bootstrap parameter estimate” value ([2]; bootstrap analysis) was 33.27 % CV and the “CL/F_IIV, population parameter estimate” value [2, 3] was 62.53 % CV. For the same compound, the “KA IIV, population parameter estimate” value [2, 3] was 98.99 % CV, the “TLag IIV, population parameter estimate” value [2, 3] was 69.17 % CV and the “V/F_IIV, population parameter estimate” value [2, 3] was 33.77 % CV. For the same compound, the “Additive Error, population parameter estimate” value [2, 4] was 0.35 SD and the “Proportional Error, population parameter estimate” value [2, 4] was 37.56 % CV.
